Data from patent US20110230476A1, “PI3 KINASE INHIBITORS AND USES THEREOF” (AVILA THERAPEUTICS, INC., priority 2009, published 2011).

Each compound was assayed against T1, PI3Kα (p110α/p85α) (Homo sapiens, UniProt P42336) (assay: HTRF assay, potency against active PI3Kα). Details: HTRF; [ATP]=50 μM, [di-C8-PIP2]=10 μM; 30 min pre-incubation; read-out: PI3Kα Inhibition.
T1 construct: purchased BPS Bioscience (San Diego, Calif.) or Millipore (Billerica, Mass.)
Format: biochemical
Method: Homogeneous Time Resolved Fluorescence (HTRF) Assay Protocol for Potency Assessment Against the Active Forms of PI3Kα, PI3Kβ, and PI3Kγ
The mechanics of the assay platform are best described by the vendor (Millipore, Billerica, Mass.) on their website at the following URL: www.millipore.com/coa/tech1/74jt4z.
Briefly, Stop solution (Stop A, #33-007 and Stop B, #33-009; 3:1 ratio) and Detection Mix (from DMC, #33-015 with DMA, #33-011 and DMB, #33-013; 18:1:1 ratio) were prepared as recommended by the manufacturer about 2 hrs prior to use. […] Lipid kinase reactions were started with the addition of 5 μL of ATP solution, mixed for 15 sec on a rotary plate shaker and incubated for 30-60 minutes at 25° C. Next, reactions were stopped with a 5 μL addition of Stop solution immediately followed by a 5 μL volume of Detection Mix. […] At the conclusion of each assay, the HTRF ratio from fluorescence emission values for each well was calculated and % Inhibition determined from averaged controls wells (+/−PI3K enzyme). % Inhibition values for each compound were then plotted against inhibitor concentration to estimate IC50 from log [Inhibitor] vs Response, Variable Slope model in GraphPad Prism from GraphPad Software (San Diego, Calif.).

T1 sequence (P42336 whole entry): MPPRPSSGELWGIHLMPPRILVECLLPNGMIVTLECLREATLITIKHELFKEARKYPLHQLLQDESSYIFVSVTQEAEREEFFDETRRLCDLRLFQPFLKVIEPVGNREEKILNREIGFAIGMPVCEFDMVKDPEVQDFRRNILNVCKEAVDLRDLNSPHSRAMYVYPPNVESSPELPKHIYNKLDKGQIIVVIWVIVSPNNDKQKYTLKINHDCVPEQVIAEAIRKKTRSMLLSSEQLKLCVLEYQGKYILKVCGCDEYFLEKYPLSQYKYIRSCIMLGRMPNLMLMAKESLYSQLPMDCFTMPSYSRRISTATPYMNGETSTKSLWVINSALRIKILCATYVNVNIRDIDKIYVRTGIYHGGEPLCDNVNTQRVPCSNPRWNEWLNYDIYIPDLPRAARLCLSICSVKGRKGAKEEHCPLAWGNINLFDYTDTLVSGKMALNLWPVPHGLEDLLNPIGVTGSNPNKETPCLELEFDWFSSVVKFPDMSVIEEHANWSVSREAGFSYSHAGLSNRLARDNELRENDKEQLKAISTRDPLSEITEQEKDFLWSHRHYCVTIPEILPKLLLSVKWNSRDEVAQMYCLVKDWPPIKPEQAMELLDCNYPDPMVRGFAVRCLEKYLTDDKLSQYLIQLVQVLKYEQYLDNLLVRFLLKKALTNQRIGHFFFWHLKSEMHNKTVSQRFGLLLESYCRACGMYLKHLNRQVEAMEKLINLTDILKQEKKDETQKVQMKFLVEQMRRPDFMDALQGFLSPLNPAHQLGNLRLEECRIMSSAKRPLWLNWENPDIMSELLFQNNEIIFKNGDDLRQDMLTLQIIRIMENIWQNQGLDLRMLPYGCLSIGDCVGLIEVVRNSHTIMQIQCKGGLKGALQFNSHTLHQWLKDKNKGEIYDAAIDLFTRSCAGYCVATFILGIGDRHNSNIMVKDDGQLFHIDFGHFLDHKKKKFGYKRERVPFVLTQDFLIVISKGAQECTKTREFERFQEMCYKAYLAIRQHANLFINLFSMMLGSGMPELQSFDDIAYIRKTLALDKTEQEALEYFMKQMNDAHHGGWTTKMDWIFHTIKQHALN
T1 sequence (P27986 whole entry partner): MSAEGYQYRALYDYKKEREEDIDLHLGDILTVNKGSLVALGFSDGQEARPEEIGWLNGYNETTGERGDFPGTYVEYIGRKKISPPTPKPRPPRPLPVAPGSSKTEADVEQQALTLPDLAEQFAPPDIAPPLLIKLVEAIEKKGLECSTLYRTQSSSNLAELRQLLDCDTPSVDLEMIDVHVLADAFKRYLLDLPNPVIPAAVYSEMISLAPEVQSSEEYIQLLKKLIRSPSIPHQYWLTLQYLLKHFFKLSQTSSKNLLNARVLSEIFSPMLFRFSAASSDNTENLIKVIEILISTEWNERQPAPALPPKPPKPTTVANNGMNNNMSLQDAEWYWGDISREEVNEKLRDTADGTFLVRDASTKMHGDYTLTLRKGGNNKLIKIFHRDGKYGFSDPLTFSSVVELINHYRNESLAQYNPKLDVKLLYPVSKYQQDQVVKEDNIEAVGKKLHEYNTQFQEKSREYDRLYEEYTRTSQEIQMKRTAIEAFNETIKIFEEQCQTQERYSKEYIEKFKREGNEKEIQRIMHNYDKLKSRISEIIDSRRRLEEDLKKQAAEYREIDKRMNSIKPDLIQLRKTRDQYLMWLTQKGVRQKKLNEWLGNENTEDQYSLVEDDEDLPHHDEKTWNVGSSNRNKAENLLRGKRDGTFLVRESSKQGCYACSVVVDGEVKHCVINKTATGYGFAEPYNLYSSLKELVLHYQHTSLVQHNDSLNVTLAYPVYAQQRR

Compared with `C=CC(=O)N1CCN(C2CCC(O)(c3cc4nc(-c5cccc6[nH]ncc56)nc(N5CCOCC5)c4s3)CC2)CC1` (mixture of isomers) [II-a-152, 1-(4-(4-(2-(1H-indazol-4-yl)-4-morpholinothieno[3,2-d]pyrimidin-6-yl)-4-hydroxycyclohexyl)piperazin-1-yl)prop-2-en-1-one], `C=CC(=O)N1CCN(Cc2cc3nc(-c4cccc5[nH]ncc45)nc(N4CCOCC4)c3s2)CC1` [II-a-2, 1-(4-((2-(1H-indazol-4-yl)-4-morpholinothieno[3,2-d]pyrimidin-6-yl)methyl)piperazin-1-yl)prop-2-en-1-one] is lower in IC50: 100 to 1000 nM for the first, 10 to 100 nM for the second.

`C=CC(=O)NCc1ccc(OC)c(-n2c(CSc3ncnc4[nH]cnc34)nc3cccc(Cl)c3c2=O)c1` [I-5, N-(3-(2-((9H-purin-6-ylthio)methyl)-5-chloro-4-oxoquinazolin-3(4H)-yl)-4-methoxybenzyl)acrylamide] and `C/C=C/C(=O)CCC(=O)NCc1ccc(OC)c(-n2c(CSc3ncnc4[nH]cnc34)nc3cccc(Cl)c3c2=O)c1` [I-6, (E)-N-(3-(2-((9H-purin-6-ylthio)methyl)-5-chloro-4-oxoquinazolin-3(4H)-yl)-4-methoxybenzyl)-4-oxohept-5-enamide] cannot be ordered by IC50: over 1000 nM for the first, over 1000 nM for the second.

First: C/C=C/C(=O)CCC(=O)NCCCC(=O)N1CCN(Cc2cc3nc(-c4cccc5[nH]ncc45)nc(N4CCOCC4)c3s2)CC1 [II-a-19, (E)-N-(4-(4-((2-(1H-indazol-4-yl)-4-morpholinothieno[3,2-d]pyrimidin-6-yl)methyl)piperazin-1-yl)-4-oxobutyl)-4-oxohept-5-enamide]
Second: C=CC(=O)NCCCC(=O)N1CCN(Cc2cc3nc(-c4cccc5[nH]ncc45)nc(N4CCOCC4)c3s2)CC1 [II-a-20, N-(4-(4-((2-(1H-indazol-4-yl)-4-morpholinothieno[3,2-d]pyrimidin-6-yl)methyl)piperazin-1-yl)-4-oxobutyl)acrylamide]
The IC50 of the first is lower: 10 to 100 nM for the first, 100 to 1000 nM for the second. The first is the more potent here.

First: C/C=C/C(=O)CCCC(=O)N1CC=C(c2cc3nc(-c4cccc5[nH]ncc45)nc(N4CCOCC4)c3s2)CC1 [II-a-60, (E)-1-(4-(2-(1H-indazol-4-yl)-4-morpholinothieno[3,2-d]pyrimidin-6-yl)-5,6-dihydropyridin-1(2H)-yl)oct-6-ene-1,5-dione]
Second: C/C=C/C(=O)CCCC(=O)NCC(=O)N1CC=C(c2cc3nc(-c4cccc5[nH]ncc45)nc(N4CCOCC4)c3s2)CC1 [II-a-61, (E)-N-(2-(4-(2-(1H-indazol-4-yl)-4-morpholinothieno[3,2-d]pyrimidin-6-yl)-5,6-dihydropyridin-1(2H)-yl)-2-oxoethyl)-5-oxooct-6-enamide]
The IC50 of the first is higher: 10 to 100 nM for the first, under 10 nM for the second.

First: CC(C)OC/C=C/C(=O)CCC(=O)N1CCN(Cc2cc3nc(-c4cccc5[nH]ncc45)nc(N4CCOCC4)c3s2)CC1 [II-a-62, (E)-1-(4-((2-(1H-indazol-4-yl)-4-morpholinothieno[3,2-d]pyrimidin-6-yl)methyl)piperazin-1-yl)-7-isopropoxyhept-5-ene-1,4-dione]
Second: CCC/C=C/C(=O)CCC(=O)N1CCN(Cc2cc3nc(-c4cccc5[nH]ncc45)nc(N4CCOCC4)c3s2)CC1 [II-a-63, (E)-1-(4-((2-(1H-indazol-4-yl)-4-morpholinothieno[3,2-d]pyrimidin-6-yl)methyl)piperazin-1-yl)non-5-ene-1,4-dione]
The IC50 of the first is higher: 10 to 100 nM for the first, under 10 nM for the second.

`C=CC(=O)NCc1ccc(-c2cc3nc(-c4cccc(O)c4)nc(N4CCOCC4)c3s2)cc1` [II-a-65, N-(4-(2-(3-hydroxyphenyl)-4-morpholinothieno[3,2-d]pyrimidin-6-yl)benzyl)acrylamide] and `C/C=C/C(=O)CCC(=O)NCc1ccc(-c2cc3nc(-c4cccc(O)c4)nc(N4CCOCC4)c3s2)cc1` [II-a-80, (E)-N-(4-(2-(3-hydroxyphenyl)-4-morpholinothieno[3,2-d]pyrimidin-6-yl)benzyl)-4-oxohept-5-enamide] cannot be ordered by IC50: under 10 nM for the first, under 10 nM for the second.

First: C=CC(=O)N1CCc2cc(-c3cc4nc(-c5cccc(O)c5)nc(N5CCOCC5)c4s3)ccc2C1 [II-a-66, 1-(6-(2-(3-hydroxyphenyl)-4-morpholinothieno[3,2-d]pyrimidin-6-yl)-3,4-dihydroisoquinolin-2(1H)-yl)prop-2-en-1-one]
Second: C/C=C/C(=O)CCC(=O)N1CCc2ccc(-c3cc4nc(-c5cccc(O)c5)nc(N5CCOCC5)c4s3)cc2C1 [II-a-67, (E)-1-(7-(2-(3-hydroxyphenyl)-4-morpholinothieno[3,2-d]pyrimidin-6-yl)-3,4-dihydroisoquinolin-2(1H)-yl)hept-5-ene-1,4-dione]
The IC50 of the first is higher: 10 to 100 nM for the first, under 10 nM for the second.

`C/C=C/C(=O)CCC(=O)N1Cc2ccc(-c3cc4nc(-c5cccc(O)c5)nc(N5CCOCC5)c4s3)cc2C1` [II-a-68, (E)-1-(5-(2-(3-hydroxyphenyl)-4-morpholinothieno[3,2-d]pyrimidin-6-yl)isoindolin-2-yl)hept-5-ene-1,4-dione] and `C/C=C/C(=O)CCC(=O)N1CCN(c2ccc(-c3cc4nc(-c5cccc(O)c5)nc(N5CCOCC5)c4s3)cc2)CC1` [II-a-102, (E)-1-(4-(4-(2-(3-hydroxyphenyl)-4-morpholinothieno[3,2-d]pyrimidin-6-yl)phenyl)piperazin-1-yl)hept-5-ene-1,4-dione] cannot be ordered by IC50: under 10 nM for the first, under 10 nM for the second.

First: C=CC(=O)N1CCC(O)(C#Cc2cc3nc(-c4cccc(O)c4)nc(N4CCOCC4)c3s2)CC1 [II-a-69, 1-(4-hydroxy-4-((2-(3-hydroxyphenyl)-4-morpholinothieno[3,2-d]pyrimidin-6-yl)ethynyl)piperidin-1-yl)prop-2-en-1-one]
Second: C=C(C)C(=O)CCC(=O)N1CCC(O)(C#Cc2cc3nc(-c4cccc(O)c4)nc(N4CCOCC4)c3s2)CC1 [II-a-105, 1-(4-hydroxy-4-((2-(3-hydroxyphenyl)-4-morpholinothieno[3,2-d]pyrimidin-6-yl)ethynyl)piperidin-1-yl)-5-methylhex-5-ene-1,4-dione]
The IC50 of the first is higher: 10 to 100 nM for the first, under 10 nM for the second.

Compared with `C=CC(=O)N1CCC(C#Cc2cc3nc(-c4cccc(O)c4)nc(N4CCOCC4)c3s2)CC1` [II-a-70, 1-(4-((2-(3-hydroxyphenyl)-4-morpholinothieno[3,2-d]pyrimidin-6-yl)ethynyl)piperidin-1-yl)prop-2-en-1-one], `C=C(C)C(=O)CCC(=O)N1CCC(C#Cc2cc3nc(-c4cccc(O)c4)nc(N4CCOCC4)c3s2)CC1` [II-a-103, 1-(4-((2-(3-hydroxyphenyl)-4-morpholinothieno[3,2-d]pyrimidin-6-yl)ethynyl)piperidin-1-yl)-5-methylhex-5-ene-1,4-dione] is lower in IC50: 10 to 100 nM for the first, under 10 nM for the second.

`C=CC(=O)N1CCN(c2ccc(-c3cc4nc(-c5cccc6[nH]ncc56)nc(N5CCOCC5)c4s3)cc2)CC1` [II-a-78, 1-(4-(4-(2-(1H-indazol-4-yl)-4-morpholinothieno[3,2-d]pyrimidin-6-yl)phenyl)piperazin-1-yl)prop-2-en-1-one] and `C=CC(=O)N1CCC(O)(C#Cc2cc3nc(-c4cccc5[nH]ncc45)nc(N4CCOCC4)c3s2)CC1` [II-a-101, 1-(4-((2-(1H-indazol-4-yl)-4-morpholinothieno[3,2-d]pyrimidin-6-yl)ethynyl)-4-hydroxypiperidin-1-yl)prop-2-en-1-one] fall in the same range of IC50: 100 to 1000 nM for the first, 100 to 1000 nM for the second.

`C/C=C/C(=O)CCC(=O)NCc1cccc(-c2cc3nc(-c4cccc(O)c4)nc(N4CCOCC4)c3s2)c1` [II-a-79, (E)-N-(3-(2-(3-hydroxyphenyl)-4-morpholinothieno[3,2-d]pyrimidin-6-yl)benzyl)-4-oxohept-5-enamide] and `C/C=C/C(=O)CCC(=O)N1CCC(O)(C#Cc2cc3nc(-c4cccc(O)c4)nc(N4CCOCC4)c3s2)CC1` [II-a-104, (E)-1-(4-hydroxy-4-((2-(3-hydroxyphenyl)-4-morpholinothieno[3,2-d]pyrimidin-6-yl)ethynyl)piperidin-1-yl)hept-5-ene-1,4-dione] cannot be ordered by IC50: under 10 nM for the first, under 10 nM for the second.

First: C=CC(=O)NC1CCN(c2ccc(-c3cc4nc(-c5cccc(O)c5)nc(N5CCOCC5)c4s3)cc2)CC1 [II-a-81, N-(1-(4-(2-(3-hydroxyphenyl)-4-morpholinothieno[3,2-d]pyrimidin-6-yl)phenyl)piperidin-4-yl)acrylamide]
Second: C=CC(=O)N[C@H]1CC[C@@H](C(=O)N2CCN(Cc3cc4nc(-c5cccc6[nH]ncc56)nc(N5CCOCC5)c4s3)CC2)CC1 [II-a-99]
The IC50 of the first is lower: 10 to 100 nM for the first, 100 to 1000 nM for the second. The first is the more potent here.

First: C=CC(=O)NCCC(=O)N1CC=C(c2cc3nc(-c4cccc5[nH]ncc45)nc(N4CCOCC4)c3s2)CC1 [II-a-95, N-(3-(4-(2-(1H-indazol-4-yl)-4-morpholinothieno[3,2-d]pyrimidin-6-yl)-5,6-dihydropyridin-1(2H)-yl)-3-oxopropyl)acrylamide]
Second: C=CC(=O)N[C@H]1CCCC[C@H]1C(=O)N1CCN(Cc2cc3nc(-c4cccc5[nH]ncc45)nc(N4CCOCC4)c3s2)CC1 [II-a-96]
The IC50 of the first is higher: over 1000 nM for the first, 100 to 1000 nM for the second.

`C=CC(=O)N[C@@H]1CCCC[C@H]1C(=O)N1CCN(Cc2cc3nc(-c4cccc5[nH]ncc45)nc(N4CCOCC4)c3s2)CC1` [II-a-97] and `C=CC(=O)N[C@H]1CCC[C@@H](C(=O)N2CCN(Cc3cc4nc(-c5cccc6[nH]ncc56)nc(N5CCOCC5)c4s3)CC2)C1` [II-a-98] fall in the same range of IC50: 100 to 1000 nM for the first, 100 to 1000 nM for the second.

For `C=CC(=O)N[C@H]1CC[C@H](C(=O)N2CCN(Cc3cc4nc(-c5cccc6[nH]ncc56)nc(N5CCOCC5)c4s3)CC2)CC1` [II-a-100], the IC50 was 100 to 1000 nM.
